Read-outs that look alike come from different tables or passages of the source.
Tests used:
[1] = biological target: T1, recombinant soluble tissue factor and recombinant human factor VIIa (TF-VIIa) (Homo sapiens, UniProt P08709); assay: TF-VIIa Assay; type: biochemical
T1 construct: conversion of coagulation factor VII to VIIa by Xa; purchased American Diagnostica, Greenwich Conn; host or cells: factor VIIa purchased; soluble TF made in house in E. coli

[2] = biological target: T2, Trypsin (type 1× from porcine pancreas) (Sus scrofa, UniProt P00761); assay: Trypsin Assay; type: biochemical; parameters: % Inhibition Trypsin II @ 1: concentration or dose not given beside the values; details: for % Inhibition Trypsin II (30 µM): at 30 µM
T2 construct: Trypsin (5 ug/ml; type 1× from porcine pancreas); purchased Sigma, St. Louis Mo; host or cells: porcine pancreas
T2 sequence (P00761 9-231): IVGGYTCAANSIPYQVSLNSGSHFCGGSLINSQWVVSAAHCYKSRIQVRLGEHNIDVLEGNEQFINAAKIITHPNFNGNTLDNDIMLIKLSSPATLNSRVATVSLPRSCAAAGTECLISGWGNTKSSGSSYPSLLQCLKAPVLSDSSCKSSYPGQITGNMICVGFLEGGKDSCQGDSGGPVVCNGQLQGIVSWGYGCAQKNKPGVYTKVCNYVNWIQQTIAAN

T1 sequence (P08709 213-466 limits assumed): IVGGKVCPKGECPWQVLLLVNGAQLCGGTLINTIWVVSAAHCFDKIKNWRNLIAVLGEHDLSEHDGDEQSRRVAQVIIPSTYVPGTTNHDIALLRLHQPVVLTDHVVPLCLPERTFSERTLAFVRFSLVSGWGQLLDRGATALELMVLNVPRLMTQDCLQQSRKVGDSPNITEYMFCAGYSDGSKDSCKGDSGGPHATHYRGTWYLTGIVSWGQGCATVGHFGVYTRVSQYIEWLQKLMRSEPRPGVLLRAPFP
T1 sequence (P08709 61-212 limits assumed): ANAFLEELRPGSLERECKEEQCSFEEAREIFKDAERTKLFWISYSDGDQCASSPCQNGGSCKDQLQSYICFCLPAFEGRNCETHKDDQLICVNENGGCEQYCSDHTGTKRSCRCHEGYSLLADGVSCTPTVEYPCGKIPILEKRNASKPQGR
T1 sequence (P13726 33-251 partner limits assumed): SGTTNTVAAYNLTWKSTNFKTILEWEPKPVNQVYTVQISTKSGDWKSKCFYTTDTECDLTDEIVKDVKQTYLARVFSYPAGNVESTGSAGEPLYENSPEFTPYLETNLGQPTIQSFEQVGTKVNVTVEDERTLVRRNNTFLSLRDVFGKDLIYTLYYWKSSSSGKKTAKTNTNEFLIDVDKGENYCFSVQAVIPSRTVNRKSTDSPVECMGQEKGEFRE

Structure (SMILES)	% Inhibition TF-VIIa (100 νM) ([1]; inhibitor at 100 νM) [%]	% Inhibition Trpysin II (100 νM) ([2]; inhibitor at 100 νM) [%]	% Inhibition Trypsin II @ 1 [2] [% @ 1]	other results
O=C(Cn1c(-c2cccc(Cl)c2)c(Cl)nc(NCCc2ccccc2)c1=O)NCCc1cccnc1 [Example E-0089]	3	8	–	–
O=C(Cn1c(-c2ccccc2)c(Cl)nc(NCCc2ccccc2)c1=O)NCCc1ccncc1 [Example E-0010]	0	0	–	–
O=C(Cn1c(-c2cccc(Cl)c2)c(Cl)nc(NCCc2ccccc2)c1=O)NCCc1cccnc1 [Example E-0077]	0	7	–	–
COc1ccc(CCNc2nc(Cl)c(-c3ccccc3)n(CC(=O)NCc3ccc(C(=N)N)cc3)c2=O)cc1 [1507-11]	–	–	27	–
CC(C)Nc1nc(Cl)c(-c2cccc([N+](=O)[O-])c2)n(CC(=O)NCc2ccc(C(N)=NO)cc2)c1=O [Example 61]	–	–	–	% Inhibition Trypsin II (30 µM) [2]: 10%
N=C(N)c1ccc(CNC(=O)Cn2c(-c3ccc4c(c3)OCO4)c(Cl)nc(NCCc3ccc(Cl)cc3)c2=O)cc1 [1471-42]	–	–	–	IC50 ([1]; read-out: IC50 TF-VIIa): 10.5 µM
CC(C)CNc1nc(Cl)c(-c2ccccc2)n(CC(=O)NCc2ccc(C(=N)N)cc2)c1=O [1507-32]	–	–	0	–
O=C(Cn1c(-c2ccc(Cl)cc2)c(Cl)nc(NCc2ccccc2)c1=O)NCCc1ccncc1 [Example E-0017]	0	1	–	–
O=C(Cn1c(-c2ccccc2)c(Cl)nc(NCc2ccncc2)c1=O)NCCc1ccncc1 [Example E-0016]	0	4	–	–
O=C(Cn1c(-c2ccccc2)c(Cl)nc(NCCc2ccc(Cl)cc2)c1=O)NCCc1ccncc1 [Example E-0012]	0	0	–	–
O=C(Cn1c(-c2ccc(Cl)cc2)c(Cl)nc(NCCc2ccncc2)c1=O)NCCc1ccncc1 [Example E-0022]	0	2	–	–
O=C(Cn1c(-c2cccc(Cl)c2)c(Cl)nc(NCCc2ccc(Cl)cc2)c1=O)NCCc1ccncc1 [Example E-0082]	4	3	–	–
O=C(Cn1c(-c2ccc(-c3ccccc3)cc2)c(Cl)nc(NCCc2ccccc2)c1=O)NCCc1ccncc1 [Example E-0050]	–	–	–	% Inhibition TF-VIIa (100 νM) [1]: 0%; % Inhibition Trpysin II (100 νM) [2]: 0%
COc1ccc(-c2c(Cl)nc(NCCc3ccncc3)c(=O)n2CC(=O)NCCc2ccncc2)cc1 [Example E-0038]	0	3	–	–
N=C(N)c1ccc(CNC(=O)Cn2c(-c3ccccc3)c(Cl)nc(NC(Cc3ccccc3)c3ccccc3)c2=O)cc1 (centres unmarked) [1507-07]	–	–	7	–
O=C(Cn1c(CCc2ccccc2)c(Cl)nc(NCCc2cccc(Cl)c2)c1=O)NCCc1ccncc1 [Example E-0067]	0	0	–	–
O=C(Cn1c(CCc2ccccc2)c(Cl)nc(NCCc2ccccc2)c1=O)NCCc1ccncc1 [Example E-0066]	0	0	–	–
COc1ccc(-c2c(Cl)nc(NCCc3cccnc3)c(=O)n2CC(=O)NCCc2ccncc2)cc1 [Example E-0037]	0	2	–	–
O=C(Cn1c(-c2cccc(Cl)c2)c(Cl)nc(NCCc2ccc(Cl)cc2)c1=O)NCCc1ccncc1 [Example E-0094]	2	7	–	–
O=C(Cn1c(-c2ccc(Cl)cc2)c(Cl)nc(NCCc2cccnc2)c1=O)NCCc1ccncc1 [Example E-0029]	0	2	–	–
N=C(N)c1ccc(CNC(=O)Cn2c(-c3ccccc3)c(Cl)nc(NCCc3ccc(Br)cc3)c2=O)cc1 [1507-06]	–	–	8	–
N=C(N)c1ccc(CNC(=O)Cn2c(-c3ccccc3)c(Cl)nc(NCc3ccc(Cl)cc3Cl)c2=O)cc1 [1507-22]	–	–	8	–
O=C(Cn1c(-c2ccc(Cl)cc2)c(Cl)nc(NCc2ccncc2)c1=O)NCCc1ccncc1 [Example E-0032]	0	3	–	–
O=C(Cn1c(-c2cccc(Cl)c2)c(Cl)nc(NCc2ccccc2)c1=O)NCCc1ccncc1 [Example E-0073]	0	6	–	–
O=C(Cn1c(-c2ccccc2)c(Cl)nc(NCCc2cccnc2)c1=O)NCCc1ccncc1 [Example E-0013]	0	1	–	–
O=C(Cn1c(-c2cccc(Cl)c2)c(Cl)nc(NCCc2cccc(Cl)c2)c1=O)NCCc1ccncc1 [Example E-0091]	1	8	–	–

Structure (SMILES)	% Inhibition TF-VIIa (100 νM) ([1]; inhibitor at 100 νM) [%]	% Inhibition Trpysin II (100 νM) ([2]; inhibitor at 100 νM) [%]	% Inhibition Trypsin II @ 1 [2] [% @ 1]	other results
COc1ccc(-c2c(Cl)nc(NCCc3ccccc3)c(=O)n2CC(=O)NCCc2ccncc2)cc1 [Example E-0100]	–	12	–	–
O=C(Cn1c(Cc2ccccc2)c(Cl)nc(NCCc2cccnc2)c1=O)NCCc1ccncc1 [Example E-0061]	0	0	–	–
COc1ccc(-c2c(Cl)nc(NCCc3ccc(Cl)cc3)c(=O)n2CC(=O)NCCc2ccncc2)cc1 [Example E-0106]	5	9	–	–
O=C(Cn1c(-c2ccc(Cl)cc2)c(Cl)nc(NCCc2ccncc2)c1=O)NCCc1ccncc1 [Example E-0030]	0	4	–	–
N=C(N)c1ccc(CNC(=O)Cn2c(-c3ccccc3)c(Cl)nc(NCc3ccccc3C(F)(F)F)c2=O)cc1 [1507-15]	–	–	11	–
N=C(N)NCC#CCNC(=O)Cn1c(-c2ccccc2)cnc(NCCc2ccccc2)c1=O [Example 36]	–	–	–	% Inhibition Trypsin II (30 µM) [2]: 30%
Cc1ccc(CCNc2nc(Cl)c(-c3ccccc3)n(CC(=O)NCc3ccc(C(=N)N)cc3)c2=O)cc1 [1507-45]	–	–	0	–
C[C@H](Nc1nc(Cl)c(-c2ccccc2)n(CC(=O)NCc2ccc(C(=N)N)cc2)c1=O)c1ccccc1 [1507-34]	–	–	0	–
N=C(N)c1ccc(CNC(=O)Cn2c(-c3cccc(N)c3)c(Cl)nc(NCCc3ccccc3)c2=O)cc1 [Example 86]	–	–	78	–
N=C(N)c1ccc(CNC(=O)Cn2c(-c3ccccc3)c(Cl)nc(NCC3CC3)c2=O)cc1 [Example 1517-43]	–	–	–	% Inhibition Trypsin II (30 µM) ([2]; cells with % sign): 43%
N=C(N)c1ccc(CNC(=O)Cn2c(-c3ccccc3)c(Cl)nc(NC3CCCC3)c2=O)cc1 [1507-25]	–	–	60	–
N=C(N)c1ccc(CNC(=O)Cn2c(-c3ccccc3)c(Cl)nc(NCc3ccccn3)c2=O)cc1 [1507-24]	–	–	–	% Inhibition Trypsin II (30 µM) [2]: 25% @ 30
Cc1c(Cl)nc(NCCc2ccc(Cl)cc2)c(=O)n1CC(=O)NCc1ccc(C(=N)N)cc1 [1471-2]	–	–	–	% Inhibition Trypsin II (30 µM) [2]: 0%
N=C(N)c1ccc(CNC(=O)Cn2c(-c3ccccc3)c(Cl)nc(NCc3ccc(Br)cc3)c2=O)cc1 [1507-30]	–	–	0	–
N=C(N)c1ccc(CNC(=O)Cn2c(-c3ccccc3)c(Cl)nc(NCc3ccc(OC(F)(F)F)cc3)c2=O)cc1 [1507-04]	–	–	9	–
N=C(N)c1ccc(CNC(=O)Cn2c(-c3ccccc3)c(Cl)nc(NCc3cccc(Cl)c3)c2=O)cc1 [1507-38]	–	–	0	–
Nc1cccc(-c2c(Cl)nc(NC3CCC3)c(=O)n2CC(=O)NCc2ccccc2)c1 [Example 99]	–	–	–	% Inhibition Trypsin II (30 µM) [2]: 7% @ 30
N=C(N)c1ccc(CNC(=O)Cn2c(-c3ccccc3)c(Cl)nc(NC3CC3)c2=O)cc1 [1507-31]	–	–	2	–
N=C(N)c1ccc(CNC(=O)Cn2c(-c3ccccc3)c(Cl)nc(NCc3cccc(F)c3)c2=O)cc1 [1507-42]	–	–	0	–
N=C(N)c1ccc(CNC(=O)Cn2c(-c3ccccc3)c(Cl)nc(NCc3cccc4ccccc34)c2=O)cc1 [1507-28]	–	–	1	–
O=C(Cn1c(-c2ccccc2)c(Cl)nc(NCCN2CCOCC2)c1=O)NCCc1ccncc1 [Example E-0015]	0	–	–	–
N=C(N)c1ccc(CNC(=O)Cn2c(-c3ccccc3)c(Cl)nc(NCCc3cccs3)c2=O)cc1 [1507-18]	–	–	6	–
N=C(N)c1ccc(CNC(=O)Cn2c(-c3ccccc3)c(Cl)nc(NCc3ccc(F)cc3F)c2=O)cc1 [1507-26]	–	–	11	–
COc1ccc(CNc2nc(Cl)c(-c3ccccc3)n(CC(=O)NCc3ccc(C(=N)N)cc3)c2=O)cc1 [1507-13]	–	–	8	–
Nc1cccc(-c2c(Cl)nc(NC3CCC3)c(=O)n2CC(=O)NCCc2ccccc2)c1 [Example 89]	–	–	–	% Inhibition Trypsin II (30 µM) [2]: 9% @ 30
COc1cccc(CCNc2nc(Cl)c(-c3ccccc3)n(CC(=O)NCc3ccc(C(=N)N)cc3)c2=O)c1 [1507-12]	–	–	12	–

Source: patent US7119094B1, “Substituted polycyclic aryl and heteroarpyl pyrazinones useful for selective inhibition of the coagulation cascade” (Warner-Lambert Company, priority 2000, dated 2006)
